Assay in all cases: cell-based
The target in assay [1] is hNav1.7 (Homo sapiens, UniProt Q15858). Format: cell-based.
In assay [2] the target is hNav1.5 (Homo sapiens, UniProt Q14524). As to conditions: IonWorks Quattro, read-out: IWQ Use Nav1.5. For orientation: Patch clamp records ionic current or voltage across a cell membrane.
Assay [3] concerns the target hNav1.3 (Homo sapiens, UniProt Q9NY46). The note with it: IonWorks Quattro, read-out: IWQ Use Nav1.3.
Setting [4] is: clamped to −110 mV, depolarized to −10 mV, 5 min after compound, n=2.
[5] abbreviates: IonWorks Quattro, use-dependent block, hNav1.7, read-out: IWQ Use Nav1.7.

Structures are written as SMILES. Like-named read-outs stand apart in the source and are kept apart here. Positions of bridges follow the written chain, without caps; N, C: chain ends. Non-standard residues stand in square brackets, D forms with d. Residues, ends and D or L forms follow the SMILES beside them. 1Nal = N[C@@H](Cc1cccc2ccccc12)C(=O)O

Sequence of hNav1.5 (Q14524 whole entry, looked up): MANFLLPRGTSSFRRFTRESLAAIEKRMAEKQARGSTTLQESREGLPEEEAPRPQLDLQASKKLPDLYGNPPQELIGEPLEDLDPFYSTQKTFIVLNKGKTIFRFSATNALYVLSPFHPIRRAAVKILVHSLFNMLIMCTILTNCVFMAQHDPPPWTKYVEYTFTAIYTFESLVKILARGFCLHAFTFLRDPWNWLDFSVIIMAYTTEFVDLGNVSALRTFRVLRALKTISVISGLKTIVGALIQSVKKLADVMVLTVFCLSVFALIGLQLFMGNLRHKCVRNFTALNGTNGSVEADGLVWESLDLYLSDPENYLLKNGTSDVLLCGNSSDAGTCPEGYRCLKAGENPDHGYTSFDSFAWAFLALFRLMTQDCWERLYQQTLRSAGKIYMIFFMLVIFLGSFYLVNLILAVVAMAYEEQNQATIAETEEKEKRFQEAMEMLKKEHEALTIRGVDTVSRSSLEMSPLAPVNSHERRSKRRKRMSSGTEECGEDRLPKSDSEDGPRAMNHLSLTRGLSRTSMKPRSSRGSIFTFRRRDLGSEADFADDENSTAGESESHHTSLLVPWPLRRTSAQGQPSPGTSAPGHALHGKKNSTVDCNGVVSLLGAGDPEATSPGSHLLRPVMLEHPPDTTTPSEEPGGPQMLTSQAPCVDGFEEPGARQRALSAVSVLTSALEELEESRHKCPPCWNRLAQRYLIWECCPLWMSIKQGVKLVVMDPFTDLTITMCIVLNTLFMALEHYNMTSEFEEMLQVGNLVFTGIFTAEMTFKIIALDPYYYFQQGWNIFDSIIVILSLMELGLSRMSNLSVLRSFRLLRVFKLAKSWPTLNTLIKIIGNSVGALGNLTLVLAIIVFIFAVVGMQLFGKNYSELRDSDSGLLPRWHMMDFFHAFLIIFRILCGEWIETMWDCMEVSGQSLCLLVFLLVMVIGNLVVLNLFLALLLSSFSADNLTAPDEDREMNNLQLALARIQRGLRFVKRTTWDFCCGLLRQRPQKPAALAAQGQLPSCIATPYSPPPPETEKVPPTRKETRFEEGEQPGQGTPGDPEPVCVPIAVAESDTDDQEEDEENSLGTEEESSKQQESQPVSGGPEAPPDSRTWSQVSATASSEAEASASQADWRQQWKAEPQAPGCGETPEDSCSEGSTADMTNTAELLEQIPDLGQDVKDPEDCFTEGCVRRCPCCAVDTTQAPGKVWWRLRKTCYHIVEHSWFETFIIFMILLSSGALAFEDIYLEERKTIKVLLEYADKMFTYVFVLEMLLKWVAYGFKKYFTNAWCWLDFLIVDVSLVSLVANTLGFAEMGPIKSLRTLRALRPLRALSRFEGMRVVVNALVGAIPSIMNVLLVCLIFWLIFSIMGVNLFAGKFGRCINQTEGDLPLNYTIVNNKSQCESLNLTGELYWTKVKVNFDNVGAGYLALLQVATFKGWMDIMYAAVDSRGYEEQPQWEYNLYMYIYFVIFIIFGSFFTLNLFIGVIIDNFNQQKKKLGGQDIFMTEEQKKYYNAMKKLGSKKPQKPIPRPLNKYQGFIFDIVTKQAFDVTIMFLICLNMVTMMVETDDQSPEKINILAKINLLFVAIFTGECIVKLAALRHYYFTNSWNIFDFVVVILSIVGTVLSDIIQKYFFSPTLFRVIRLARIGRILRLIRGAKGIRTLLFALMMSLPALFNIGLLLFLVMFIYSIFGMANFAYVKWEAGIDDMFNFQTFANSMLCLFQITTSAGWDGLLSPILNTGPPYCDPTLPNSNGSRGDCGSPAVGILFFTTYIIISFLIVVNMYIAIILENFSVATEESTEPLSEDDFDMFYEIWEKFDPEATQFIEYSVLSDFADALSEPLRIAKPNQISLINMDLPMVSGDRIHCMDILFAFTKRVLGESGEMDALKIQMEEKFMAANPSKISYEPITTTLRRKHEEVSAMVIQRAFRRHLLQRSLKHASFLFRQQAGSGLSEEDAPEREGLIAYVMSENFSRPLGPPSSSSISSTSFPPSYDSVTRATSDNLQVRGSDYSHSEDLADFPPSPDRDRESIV
Sequence of hNav1.3 (Q9NY46 whole entry, looked up): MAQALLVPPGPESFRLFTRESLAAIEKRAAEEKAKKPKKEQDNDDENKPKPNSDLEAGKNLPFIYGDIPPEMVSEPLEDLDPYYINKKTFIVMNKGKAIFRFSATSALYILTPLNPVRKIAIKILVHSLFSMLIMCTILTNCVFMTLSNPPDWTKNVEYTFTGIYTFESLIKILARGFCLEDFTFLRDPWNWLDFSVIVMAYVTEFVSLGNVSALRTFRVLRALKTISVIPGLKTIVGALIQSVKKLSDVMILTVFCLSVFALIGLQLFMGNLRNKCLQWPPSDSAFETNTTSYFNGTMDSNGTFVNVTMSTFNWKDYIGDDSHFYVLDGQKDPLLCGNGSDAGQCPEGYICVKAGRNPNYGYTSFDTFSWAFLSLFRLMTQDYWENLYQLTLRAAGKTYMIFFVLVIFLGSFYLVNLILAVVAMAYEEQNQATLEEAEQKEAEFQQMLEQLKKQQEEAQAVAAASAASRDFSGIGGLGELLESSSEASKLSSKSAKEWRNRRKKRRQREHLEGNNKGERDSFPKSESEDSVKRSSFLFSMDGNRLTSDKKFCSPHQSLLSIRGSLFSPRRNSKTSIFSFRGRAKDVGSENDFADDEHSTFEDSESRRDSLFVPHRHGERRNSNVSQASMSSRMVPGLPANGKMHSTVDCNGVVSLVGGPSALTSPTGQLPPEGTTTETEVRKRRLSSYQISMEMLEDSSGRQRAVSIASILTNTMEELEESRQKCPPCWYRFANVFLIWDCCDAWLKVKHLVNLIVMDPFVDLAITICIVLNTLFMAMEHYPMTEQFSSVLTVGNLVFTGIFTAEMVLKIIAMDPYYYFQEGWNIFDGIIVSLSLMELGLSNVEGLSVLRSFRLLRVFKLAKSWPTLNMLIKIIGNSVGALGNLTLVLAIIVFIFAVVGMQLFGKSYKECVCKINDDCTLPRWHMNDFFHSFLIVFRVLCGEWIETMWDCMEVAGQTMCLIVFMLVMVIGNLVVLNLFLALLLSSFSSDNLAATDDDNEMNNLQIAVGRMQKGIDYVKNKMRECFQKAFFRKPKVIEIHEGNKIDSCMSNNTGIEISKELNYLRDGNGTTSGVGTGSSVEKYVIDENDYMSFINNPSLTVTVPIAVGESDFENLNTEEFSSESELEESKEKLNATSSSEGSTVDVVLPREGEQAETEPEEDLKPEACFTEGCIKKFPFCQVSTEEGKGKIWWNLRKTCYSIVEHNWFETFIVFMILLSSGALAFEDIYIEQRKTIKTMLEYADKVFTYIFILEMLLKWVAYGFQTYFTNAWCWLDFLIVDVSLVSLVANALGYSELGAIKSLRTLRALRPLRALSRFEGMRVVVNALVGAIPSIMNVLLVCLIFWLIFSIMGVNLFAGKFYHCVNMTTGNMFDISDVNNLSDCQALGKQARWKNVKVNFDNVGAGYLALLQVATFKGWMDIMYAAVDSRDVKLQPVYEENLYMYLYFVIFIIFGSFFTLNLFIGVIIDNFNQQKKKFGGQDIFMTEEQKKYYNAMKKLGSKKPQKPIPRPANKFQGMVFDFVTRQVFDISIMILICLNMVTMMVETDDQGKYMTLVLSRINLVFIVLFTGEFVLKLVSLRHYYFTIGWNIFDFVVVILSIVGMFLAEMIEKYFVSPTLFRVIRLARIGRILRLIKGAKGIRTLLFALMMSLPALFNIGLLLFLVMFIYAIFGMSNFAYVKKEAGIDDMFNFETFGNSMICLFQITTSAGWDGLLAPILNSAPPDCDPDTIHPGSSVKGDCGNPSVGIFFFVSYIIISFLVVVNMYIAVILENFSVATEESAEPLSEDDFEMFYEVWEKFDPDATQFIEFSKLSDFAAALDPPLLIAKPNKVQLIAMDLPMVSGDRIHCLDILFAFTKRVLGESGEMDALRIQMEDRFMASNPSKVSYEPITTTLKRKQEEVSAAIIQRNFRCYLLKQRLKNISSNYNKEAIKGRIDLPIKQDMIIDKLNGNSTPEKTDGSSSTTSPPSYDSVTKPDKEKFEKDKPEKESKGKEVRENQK

Turning to `CC[C@H](C)[C@@H]1NC(=O)[C@@H]2CSSC[C@@H]3NC(=O)[C@H](C(C)C)NC(=O)[C@H](CC(C)C)NC(=O)[C@H](CC(N)=O)NC(=O)[C@@H]4CCCN4C(=O)[C@H](CCCNC(=N)N)NC(=O)[C@H](CSSC[C@H](NC(=O)[C@@H](N)CC(=O)O)C(=O)N[C@@H](CC(C)C)C(=O)NCC(=O)N[C@@H](Cc4ccccc4)C(=O)NCC(=O)N[C@@H](CCCNC(=N)N)C(=O)N[C@@H](CCCCN)C(=O)N2)NC(=O)[C@H](CSSC[C@@H](C(=O)N[C@@H](CCCCN)C(=O)N[C@@H](Cc2ccc(O)cc2)C(=O)N[C@H](C(=O)N[C@@H](Cc2ccccc2)C(N)=O)C(C)C)NC(=O)[C@H](Cc2c[nH]c4ccccc24)NC(=O)[C@H](CCCCN)NC(=O)[C@H](Cc2c[nH]cn2)NC(=O)[C@H]([C@@H](C)O)NC(=O)[C@H](CCCNC(=N)N)NC(=O)[C@H](CO)NC3=O)NC(=O)[C@H](CCCCN)NC(=O)[C@H](CC(=O)O)NC(=O)[C@H](CC(N)=O)NC(=O)[C@H](CC(=O)O)NC(=O)[C@@H]2CCCN2C1=O` [SEQ ID NO: 280] (H-DCLGFGRKCIPDNDKCCRPNLVCSRTHKWCKYVF-NH2; disulfide 2-17, 9-23, 16-30), the IC50 in assay [1] (IonWorks Quattro, clamped to −110 mV, depolarized to −10 mV, 5 min after compound, n=2, read-out: IWQ Use Nav1.7) was 180 nM; in assay [2] (setting [4]), 8200 nM; in assay [3] (setting [4]), 140 nM.
As to `CC[C@H](C)[C@@H]1NC(=O)[C@@H]2CSSC[C@@H]3NC(=O)[C@H](C(C)C)NC(=O)[C@H](CC(C)C)NC(=O)[C@H](CC(N)=O)NC(=O)[C@@H]4CCCN4C(=O)[C@H](CCCCN)NC(=O)[C@H](CSSC[C@H](NC(=O)[C@@H](N)CC(=O)O)C(=O)N[C@@H](CC(C)C)C(=O)NCC(=O)N[C@@H](Cc4ccccc4)C(=O)N[C@@H](CCSC)C(=O)N[C@@H](CCCNC(=N)N)C(=O)N[C@@H](CCCCN)C(=O)N2)NC(=O)[C@H](CSSC[C@@H](C(=O)N[C@@H](CCCCN)C(=O)N[C@@H](Cc2ccc(O)cc2)C(=O)N[C@H](C(=O)N[C@@H](Cc2ccccc2)C(N)=O)C(C)C)NC(=O)[C@H](Cc2c[nH]c4ccccc24)NC(=O)[C@H](CCCCN)NC(=O)[C@H](Cc2cnc[nH]2)NC(=O)[C@H]([C@@H](C)O)NC(=O)[C@H](CCCNC(=N)N)NC(=O)[C@H](CO)NC3=O)NC(=O)[C@H](CCCCN)NC(=O)[C@H](CC(=O)O)NC(=O)[C@H](CC(N)=O)NC(=O)[C@H](CC(=O)O)NC(=O)[C@@H]2CCCN2C1=O` [compound 49] (H-DCLGFMRKCIPDNDKCCKPNLVCSRTHKWCKYVF-NH2; disulfide 2-17, 9-23, 16-30), the figures for the IC50 in assay [1], in assay [2] (Use) and in assay [3] (Use) were 300 nM, 17600 nM and 210 nM, respectively.
For `CC[C@H](C)[C@@H]1NC(=O)[C@@H]2CSSC[C@@H]3NC(=O)[C@H](C(C)C)NC(=O)[C@H](CC(C)C)NC(=O)[C@H](CC(N)=O)NC(=O)[C@@H]4CCCN4C(=O)[C@H](CCCNC(=N)N)NC(=O)[C@H](CSSC[C@H](NC(=O)[C@@H](N)CC(=O)O)C(=O)N[C@@H](CC(C)C)C(=O)NCC(=O)N[C@@H](C)C(=O)N[C@@H](Cc4ccccc4)C(=O)N[C@@H](CCCNC(=N)N)C(=O)N[C@@H](CCCCN)C(=O)N2)NC(=O)[C@H](CSSC[C@@H](C(=O)N[C@@H](CCCCN)C(=O)N[C@@H](Cc2ccc(O)cc2)C(=O)N[C@H](C(=O)N[C@@H](Cc2ccccc2)C(=O)N[C@@H](Cc2c[nH]c4ccccc24)C(=O)O)C(C)C)NC(=O)[C@H](Cc2c[nH]c4ccccc24)NC(=O)[C@H](CCCNC(=N)N)NC(=O)[C@H](Cc2c[nH]cn2)NC(=O)[C@H]([C@@H](C)O)NC(=O)[C@H](CCCNC(=N)N)NC(=O)[C@H](CO)NC3=O)NC(=O)[C@H](CCCCN)NC(=O)[C@H](CC(=O)O)NC(=O)[C@H](CC(N)=O)NC(=O)[C@H](CC(=O)O)NC(=O)[C@@H]2CCCN2C1=O` [compound 813] (H-DCLGAFRKCIPDNDKCCRPNLVCSRTHRWCKYVFW-OH; disulfide 2-17, 9-23, 16-30), the IC50 was more than 5000 nM in assay [1] (setting [5]); more than 5000 nM in assay [2] (use-dependent block, hNav1.5); more than 5000 nM in assay [3] (use-dependent block, hNav1.3).
In the case of `CC[C@H](C)[C@@H]1NC(=O)[C@@H]2CSSC[C@@H]3NC(=O)[C@H](C(C)C)NC(=O)[C@H](CC(C)C)NC(=O)[C@H](CC(N)=O)NC(=O)[C@@H]4CCCN4C(=O)[C@H](CCCNC(=N)N)NC(=O)[C@H](CSSC[C@H](NC(=O)[C@@H](N)CC(=O)O)C(=O)N[C@@H](CC(C)C)C(=O)NCC(=O)N[C@@H](C)C(=O)N[C@@H](CCSC)C(=O)N[C@@H](CCCNC(=N)N)C(=O)N[C@@H](CCCCN)C(=O)N2)NC(=O)[C@H](CSSC[C@@H](C(=O)N[C@@H](CCCCN)C(=O)N[C@@H](Cc2ccc(O)cc2)C(=O)N[C@H](C(=O)N[C@@H](CCC(=O)O)C(N)=O)C(C)C)NC(=O)[C@H](Cc2c[nH]c4ccccc24)NC(=O)[C@H](CCCCN)NC(=O)[C@H](Cc2c[nH]cn2)NC(=O)[C@H]([C@@H](C)O)NC(=O)[C@H](CCCNC(=N)N)NC(=O)[C@H](CO)NC3=O)NC(=O)[C@H](CCCCN)NC(=O)[C@H](CC(=O)O)NC(=O)[C@H](CC(N)=O)NC(=O)[C@H](CC(=O)O)NC(=O)[C@@H]2CCCN2C1=O` [compound 430] (H-DCLGAMRKCIPDNDKCCRPNLVCSRTHKWCKYVE-NH2; disulfide 2-17, 9-23, 16-30), the IC50 is more than 5000 nM in assay [1] (setting [5]); more than 5000 nM in assay [2] (use-dependent block, hNav1.5); more than 5000 nM in assay [3] (use-dependent block, hNav1.3).
On to `CC[C@H](C)[C@@H]1NC(=O)[C@@H]2CSSC[C@@H]3NC(=O)[C@H](C(C)C)NC(=O)[C@H](CC(C)C)NC(=O)[C@H](CC(N)=O)NC(=O)[C@@H]4CCCN4C(=O)[C@H](CCCNC(=N)N)NC(=O)[C@H](CSSC[C@H](NC(=O)[C@@H](N)CC(=O)O)C(=O)N[C@@H](CC(C)C)C(=O)NCC(=O)N[C@@H](Cc4ccccc4)C(=O)N[C@@H](CCSC)C(=O)N[C@@H](CCCNC(=N)N)C(=O)N[C@@H](CCCCN)C(=O)N2)NC(=O)[C@H](CSSC[C@@H](C(=O)N[C@@H](CCCCN)C(=O)N[C@@H](Cc2ccc(O)cc2)C(=O)N[C@H](C(=O)N[C@@H](Cc2ccccc2)C(N)=O)C(C)C)NC(=O)[C@H](Cc2c[nH]c4ccccc24)NC(=O)[C@H](CCCCN)NC(=O)[C@H](Cc2c[nH]cn2)NC(=O)[C@H](CO)NC(=O)[C@H](CCCNC(=N)N)NC(=O)[C@H](CO)NC3=O)NC(=O)[C@H](CCCCN)NC(=O)[C@H](CC(=O)O)NC(=O)[C@H](CC(N)=O)NC(=O)[C@H](CC(=O)O)NC(=O)[C@@H]2CCCN2C1=O` [compound 338] (H-DCLGFMRKCIPDNDKCCRPNLVCSRSHKWCKYVF-NH2; disulfide 2-17, 9-23, 16-30), for which the IC50 in assay [1] (Table 22, IonWorks Quattro, use, […], read-out: IWQ Use Nav1.7) was found to be 100 nM; in assay [2] (Table 22, use, […]), 12300 nM; in assay [3] (Table 22, use, […]), 90 nM.
As for `CC[C@H](C)[C@@H]1NC(=O)[C@@H]2CSSC[C@@H]3NC(=O)[C@H](C(C)C)NC(=O)[C@H](CC(C)C)NC(=O)[C@H](CC(N)=O)NC(=O)[C@@H]4CCCN4C(=O)[C@H](CCCNC(=N)N)NC(=O)[C@H](CSSC[C@H](NC(=O)[C@@H](N)CC(=O)O)C(=O)N[C@@H](CC(C)C)C(=O)NCC(=O)N[C@@H](C)C(=O)N[C@@H](CC(C)C)C(=O)N[C@@H](CCCNC(=N)N)C(=O)N[C@@H](CCCCN)C(=O)N2)NC(=O)[C@H](CSSC[C@@H](C(=O)N[C@@H](CCCCN)C(=O)N[C@@H](Cc2ccc(O)cc2)C(=O)N[C@H](C(=O)N[C@@H](Cc2ccccc2)C(=O)O)C(C)C)NC(=O)[C@H](Cc2c[nH]c4ccccc24)NC(=O)[C@H](CCCNC(=N)N)NC(=O)[C@H](Cc2c[nH]cn2)NC(=O)[C@H]([C@@H](C)O)NC(=O)[C@H](CCCNC(=N)N)NC(=O)[C@H](CO)NC3=O)NC(=O)[C@H](CCCCN)NC(=O)[C@H](CC(=O)O)NC(=O)[C@H](Cc2ccccc2)NC(=O)[C@H](CC(=O)O)NC(=O)[C@@H]2CCCN2C1=O` [compound 863] (H-DCLGALRKCIPDFDKCCRPNLVCSRTHRWCKYVF-OH; disulfide 2-17, 9-23, 16-30), the IC50 was more than 5000 nM in assay [1] (setting [5]); more than 5000 nM in assay [2] (use-dependent block, hNav1.5); more than 5000 nM in assay [3] (use-dependent block, hNav1.3).
For the compound `CC[C@H](C)[C@@H]1NC(=O)[C@@H]2CSSC[C@@H]3NC(=O)[C@H](C(C)C)NC(=O)[C@H](CC(C)C)NC(=O)[C@H](CC(N)=O)NC(=O)[C@@H]4CCCN4C(=O)[C@H](CCCNC(=N)N)NC(=O)[C@H](CSSC[C@H](NC(=O)[C@@H](N)CC(=O)O)C(=O)N[C@@H](CC(C)C)C(=O)NCC(=O)N[C@@H](Cc4ccccc4)C(=O)N[C@@H](CCSC)C(=O)N[C@@H](CCCNC(=N)N)C(=O)N[C@@H](CCCCN)C(=O)N2)NC(=O)[C@H](CSSC[C@@H](C(=O)N[C@@H](CCCCN)C(=O)N[C@@H](Cc2ccc(O)cc2)C(=O)N[C@H](C(=O)N[C@@H](Cc2ccccc2)C(N)=O)C(C)C)NC(=O)[C@H](Cc2c[nH]c4ccccc24)NC(=O)[C@H](CCCCN)NC(=O)[C@H](Cc2cccc4ccccc24)NC(=O)[C@H]([C@@H](C)O)NC(=O)[C@H](CCCNC(=N)N)NC(=O)[C@H](CO)NC3=O)NC(=O)[C@H](CCCCN)NC(=O)[C@H](CC(=O)O)NC(=O)[C@H](CC(N)=O)NC(=O)[C@H](CC(=O)O)NC(=O)[C@@H]2CCCN2C1=O` [compound 166] (H-DCLGFMRKCIPDNDKCCRPNLVCSRT[1Nal]KWCKYVF-NH2; disulfide 2-17, 9-23, 16-30), the IC50 turned out to be 300 nM in assay [1] (Table 23, IonWorks Quattro, use, […], read-out: IWQ Use Nav1.7); 880 nM in assay [2] (Table 23, use, […]); 430 nM in assay [3] (Table 23, use, […]).

(Values after patent publication US9340590B2 (priority 2011, dated 2016).)
